Values quoted from earlier work, collected in US11730745B1, “Kit and new method of treatment for skin basal cell and squamous cell carcinoma” (priority 2022, dated 2023).

Test system: cancer
Details: additional treatment with Selenium

For `[Se]` [Selenium], the “Decrease of the frequency of cancer” value is listed as “more than 35%”.
